Assay results: publication PMC7044277 (Nature Communications, 2020)
“And” between values parts separate entries of the source, which are not always exact repeats. Equal values may be shown once.

Tests used:
Format in all cases: cell-based
320 non-olfactory GPCRs [1] = target: T1, 320 non-olfactory GPCRs (Homo sapiens, UniProt P35368)
T1 construct: expressed in transfected cells; host or cells: HTLA cells

320 non-olfactory GPCRs [2] = target: T2, 320 non-olfactory GPCRs (Homo sapiens, UniProt P48960)
T2 construct: expressed in transfected cells; host or cells: HTLA cells

320 non-olfactory GPCRs [3] = target: T3, 320 non-olfactory GPCRs (Homo sapiens, UniProt P34995); details: receptor PTGER1; replicate values, Fig_4g
T3 construct: expressed in transfected cells; host or cells: HTLA cells

320 non-olfactory GPCRs [4] = target: 320 non-olfactory GPCRs (Homo sapiens, UniProt Q16581)
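For Fold of Basal in this document: compound tested at 1 µM final concentration.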
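For GPCRome agonism screen response in this document: fold over basal response of each receptor without drug.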

320 non-olfactory GPCRs (Homo sapiens, UniProt Q16581), sequence (Q16581 whole entry): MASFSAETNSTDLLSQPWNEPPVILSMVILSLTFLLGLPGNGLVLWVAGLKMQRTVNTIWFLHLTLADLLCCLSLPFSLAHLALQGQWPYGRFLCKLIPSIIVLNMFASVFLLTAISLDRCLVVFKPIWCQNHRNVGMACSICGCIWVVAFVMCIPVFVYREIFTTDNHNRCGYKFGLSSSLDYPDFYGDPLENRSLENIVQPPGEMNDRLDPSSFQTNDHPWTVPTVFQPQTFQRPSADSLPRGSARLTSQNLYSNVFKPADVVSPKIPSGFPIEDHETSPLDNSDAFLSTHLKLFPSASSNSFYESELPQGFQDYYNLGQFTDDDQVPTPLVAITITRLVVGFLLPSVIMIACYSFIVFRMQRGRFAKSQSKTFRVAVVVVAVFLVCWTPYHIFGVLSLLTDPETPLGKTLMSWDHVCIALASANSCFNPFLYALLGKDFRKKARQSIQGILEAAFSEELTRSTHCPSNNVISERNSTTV
T1 sequence (P35368 whole entry): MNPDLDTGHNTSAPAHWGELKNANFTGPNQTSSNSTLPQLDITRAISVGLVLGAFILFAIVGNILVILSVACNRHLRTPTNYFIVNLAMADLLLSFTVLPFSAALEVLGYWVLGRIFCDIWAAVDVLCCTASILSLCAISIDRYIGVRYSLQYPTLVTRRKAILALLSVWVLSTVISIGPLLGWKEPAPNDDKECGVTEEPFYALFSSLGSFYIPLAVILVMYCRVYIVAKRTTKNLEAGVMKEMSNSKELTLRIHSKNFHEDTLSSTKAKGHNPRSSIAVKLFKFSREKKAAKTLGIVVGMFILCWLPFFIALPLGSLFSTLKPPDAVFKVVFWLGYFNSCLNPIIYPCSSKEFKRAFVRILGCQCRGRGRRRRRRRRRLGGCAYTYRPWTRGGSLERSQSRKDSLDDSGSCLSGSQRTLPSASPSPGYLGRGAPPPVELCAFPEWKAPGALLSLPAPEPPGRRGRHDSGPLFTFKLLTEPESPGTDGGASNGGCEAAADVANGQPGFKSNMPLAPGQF
T3 sequence (P34995 whole entry): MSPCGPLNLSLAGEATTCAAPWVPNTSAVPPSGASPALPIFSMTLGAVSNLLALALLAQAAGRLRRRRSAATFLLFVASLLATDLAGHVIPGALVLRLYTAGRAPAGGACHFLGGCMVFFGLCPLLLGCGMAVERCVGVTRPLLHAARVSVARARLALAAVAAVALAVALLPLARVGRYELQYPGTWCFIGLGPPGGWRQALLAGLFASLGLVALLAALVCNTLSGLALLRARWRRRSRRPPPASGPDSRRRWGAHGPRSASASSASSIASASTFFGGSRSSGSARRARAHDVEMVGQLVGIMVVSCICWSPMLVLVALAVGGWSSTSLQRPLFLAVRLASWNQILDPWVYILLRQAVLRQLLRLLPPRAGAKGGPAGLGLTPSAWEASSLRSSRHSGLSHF
T2 sequence (P48960 21-835): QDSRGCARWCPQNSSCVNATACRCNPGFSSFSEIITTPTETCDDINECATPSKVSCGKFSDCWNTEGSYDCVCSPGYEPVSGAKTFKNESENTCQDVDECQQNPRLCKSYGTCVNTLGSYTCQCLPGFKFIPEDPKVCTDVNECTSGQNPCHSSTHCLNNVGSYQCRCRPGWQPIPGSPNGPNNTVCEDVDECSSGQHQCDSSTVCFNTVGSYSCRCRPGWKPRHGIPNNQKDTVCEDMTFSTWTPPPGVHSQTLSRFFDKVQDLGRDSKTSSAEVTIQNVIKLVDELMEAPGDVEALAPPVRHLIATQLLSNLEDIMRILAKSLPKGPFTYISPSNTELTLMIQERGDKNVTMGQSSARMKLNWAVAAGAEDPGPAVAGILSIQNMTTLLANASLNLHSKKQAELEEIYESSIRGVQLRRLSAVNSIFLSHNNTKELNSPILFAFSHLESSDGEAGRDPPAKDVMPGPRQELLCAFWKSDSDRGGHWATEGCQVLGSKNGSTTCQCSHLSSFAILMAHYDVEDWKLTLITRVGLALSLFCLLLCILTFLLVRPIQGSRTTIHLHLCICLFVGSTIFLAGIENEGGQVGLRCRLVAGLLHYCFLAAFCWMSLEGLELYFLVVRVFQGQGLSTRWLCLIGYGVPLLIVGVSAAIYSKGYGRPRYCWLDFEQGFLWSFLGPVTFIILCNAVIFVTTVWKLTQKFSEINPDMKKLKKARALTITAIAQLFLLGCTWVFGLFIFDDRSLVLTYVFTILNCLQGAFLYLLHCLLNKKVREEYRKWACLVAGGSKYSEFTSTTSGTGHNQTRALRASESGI

CCOc1cccc2cc(C(C)NCC3(O)CCCCC3)oc12 (stereo not shown) [O4LE6]
Fold of Basal (320 non-olfactory GPCRs [1]): 1.636 and 0.8834 and 1.032 and 1.027
Fold of Basal (320 non-olfactory GPCRs [2]): 0.9696 and 0.6986 and 0.95 and 0.7013
GPCRome agonism screen response (320 non-olfactory GPCRs [3]): 0.6283 and 0.5508 and 0.6804 and 0.7397
Fold of Basal (320 non-olfactory GPCRs [4]): 1.165 and 1.05 and 0.9669 and 0.8841
